{"source": "patent US9274101B2", "about": "(BIOLOG, Inc., priority 2001, dated 2016)", "key": {"[1]": {"tested_on": "Staphylococcus aureus (ATCC #29213)", "assay": "MIC determination in MICROPLATE testing plates, saline vs GELRITE inoculant", "format": "cell-based", "conditions": "ATCC29213, 18 h, SF-P plates with resazurin, 35° C.", "method": "All three antimicrobials were obtained from Sigma. […] Kanamycin and tetracycline were dissolved in sterile water."}, "E. coli MG1655": {"tested_on": "E. coli MG1655", "assay": "PM kinetic profiles of antimicrobials, S-O-R scoring and dendrogram", "format": "cell-based, Escherichia coli", "conditions": "1× level of each antimicrobial, 7 PMs, 48 hours"}, "[2]": {"tested_on": "Escherichia coli (ATCC#25922)", "conditions": "cited from earlier work"}, "[3]": {"tested_on": "Staphylococcus aureus (ATCC #29213)", "conditions": "cited from earlier work"}}, "data": [{"smiles": "CC1(C)S[C@@H]2[C@H](NC(=O)[C@H](N)c3ccccc3)C(=O)N2[C@H]1C(=O)O", "note": "[Ampicillin, ampicillin]", "values": [{"measurement": "MIC", "setting": "[1]; diluent GELRITE (0.4%)", "result": "1 to 2", "unit": "µg/mL"}, {"measurement": "MIC", "setting": "[1]; diluent Saline", "result": "1 to 4", "unit": "µg/mL"}, {"measurement": "position in dendrogram of PM response profiles (FIG. 9)", "setting": "E. coli MG1655", "result": "cluster"}, {"measurement": "MIC, NCCLS Expected Result", "setting": "[2]", "result": "2 to 8", "unit": "µg/mL"}, {"measurement": "MIC, NCCLS Expected Results", "setting": "[3]", "result": "0.25 to 1", "unit": "µg/mL"}]}]}
